Common to all, as to experiment: two-electrode voltage clamp, Xenopus oocytes, concentration-response
Assay type in all cases: cell-based
For orientation: Two-electrode voltage clamp holds a large cell at a set potential and records current.

Test [1] has as its target T1, CquiOR4 (Culex quinquefasciatus, UniProt A0A3G1T0B0).
T1 sequence (A0A3G1T0B0 1-391): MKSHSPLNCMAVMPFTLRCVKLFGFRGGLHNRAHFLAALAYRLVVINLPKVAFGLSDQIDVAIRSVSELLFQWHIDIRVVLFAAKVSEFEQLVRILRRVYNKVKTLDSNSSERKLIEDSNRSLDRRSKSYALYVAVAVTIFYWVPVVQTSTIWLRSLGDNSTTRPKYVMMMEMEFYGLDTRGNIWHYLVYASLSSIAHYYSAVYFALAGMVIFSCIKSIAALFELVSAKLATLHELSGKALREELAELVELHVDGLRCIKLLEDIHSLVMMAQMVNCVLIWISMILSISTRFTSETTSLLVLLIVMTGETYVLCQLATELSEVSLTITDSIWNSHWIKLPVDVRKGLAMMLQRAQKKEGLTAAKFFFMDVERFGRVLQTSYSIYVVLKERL

The target of a further test is T2, AaegOR15 (Aedes aegypti, UniProt A0A6B9QIR2).
T2 sequence (A0A6B9QIR2 1-390): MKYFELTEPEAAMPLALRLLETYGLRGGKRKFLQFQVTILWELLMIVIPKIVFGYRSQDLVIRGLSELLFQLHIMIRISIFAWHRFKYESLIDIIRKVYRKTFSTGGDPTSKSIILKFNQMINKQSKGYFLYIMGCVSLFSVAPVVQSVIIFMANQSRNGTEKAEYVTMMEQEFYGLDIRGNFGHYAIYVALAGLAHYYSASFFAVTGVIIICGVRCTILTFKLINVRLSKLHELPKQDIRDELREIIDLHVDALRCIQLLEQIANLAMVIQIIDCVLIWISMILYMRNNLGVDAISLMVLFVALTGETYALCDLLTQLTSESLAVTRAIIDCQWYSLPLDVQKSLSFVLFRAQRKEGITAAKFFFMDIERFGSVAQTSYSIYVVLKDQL
T2 sequence (Q178U6 1-478 partner): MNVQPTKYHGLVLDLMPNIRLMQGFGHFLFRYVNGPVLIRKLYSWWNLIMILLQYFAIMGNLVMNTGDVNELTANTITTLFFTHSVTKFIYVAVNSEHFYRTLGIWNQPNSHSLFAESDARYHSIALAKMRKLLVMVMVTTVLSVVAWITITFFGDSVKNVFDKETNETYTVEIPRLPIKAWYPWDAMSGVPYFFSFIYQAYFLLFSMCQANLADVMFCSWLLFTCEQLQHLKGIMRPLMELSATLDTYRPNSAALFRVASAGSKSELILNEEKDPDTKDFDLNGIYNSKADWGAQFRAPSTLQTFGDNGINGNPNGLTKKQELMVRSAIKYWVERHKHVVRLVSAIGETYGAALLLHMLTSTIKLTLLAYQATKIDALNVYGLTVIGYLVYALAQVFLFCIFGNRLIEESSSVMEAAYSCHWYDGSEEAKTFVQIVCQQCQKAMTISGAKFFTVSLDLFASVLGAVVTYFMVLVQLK

The target in the next test is T3, CquiOR5 (Culex quinquefasciatus, UniProt A0A3G1T0A9).
T3 sequence (A0A3G1T0A9 1-393): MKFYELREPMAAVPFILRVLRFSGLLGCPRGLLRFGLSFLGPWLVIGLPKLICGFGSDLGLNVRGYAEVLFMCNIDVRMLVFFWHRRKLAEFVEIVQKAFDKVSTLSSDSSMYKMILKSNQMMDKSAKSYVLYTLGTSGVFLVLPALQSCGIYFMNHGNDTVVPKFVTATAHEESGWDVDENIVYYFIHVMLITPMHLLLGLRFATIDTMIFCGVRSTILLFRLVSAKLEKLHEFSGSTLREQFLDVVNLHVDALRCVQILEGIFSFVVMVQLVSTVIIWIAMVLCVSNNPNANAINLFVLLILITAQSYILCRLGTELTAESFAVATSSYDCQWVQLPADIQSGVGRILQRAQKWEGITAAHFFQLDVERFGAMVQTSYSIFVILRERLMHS

The target of test [2] is T1, CquiOR4. This is another data set of the same source.

pEC50: −log10 of the molar value. Structures can show the parent of a compound that is named as a salt.

As for `CCC(=O)OCCc1ccccc1` [phenethyl propionate], the “two-electrode voltage clamp, Xenopus oocytes, concentration-response” value (“two-electrode voltage clamp” for short) is 2-Phenylethanol, phenethyl formate, and phenethyl propionate were the best ligands for CquiOR4 on CquiOR4 [1]; “AaegOR15/AaegOrco-expressing oocytes generated dose-dependent, robust currents when challenged with phenethyl propionate, phenethyl formate, and acetophenone” at AaegOR15.

By pEC50 is commonly meant −log10 of the EC50, conventionally taken in molar units. With `C=CC(C)(O)CCC=C(C)C` (racemic) [linalool], at CquiOR5, the pEC50 was 6.24.

Take `CC(=O)c1ccccc1` [acetophenone]: the “two-electrode voltage clamp” value at AaegOR15 was “AaegOR15/AaegOrco-expressing oocytes generated dose-dependent, robust currents when challenged with phenethyl propionate, phenethyl formate, and acetophenone”.

Regarding `OCCc1ccccc1` [2-phenylethanol], the pEC50 on CquiOR4 [2] was 7.55.

On to `OCc1ccccc1` [benzyl alcohol], for which, on AaegOR15, the “two-electrode voltage clamp” value is “Concentration-dependent responses of AaegOR15·AaegOrco-expressing oocytes to four major odorants”.

For `O=COCCc1ccccc1` [phenethyl formate], the “two-electrode voltage clamp” value on AaegOR15 is “AaegOR15/AaegOrco-expressing oocytes generated dose-dependent, robust currents when challenged with phenethyl propionate, phenethyl formate, and acetophenone”.

For the origin of these results see publication PMC6733653 (Insect biochemistry and molecular biology, 2019).
